The values that follow come from patent US20100003712A1, “BIOMARKER FOR ASSESSING RESPONSE TO CHYMASE TREATMENT” (priority 2008, published 2010).

The subject of one assay is other serine proteases. To be noted: cited from earlier work.
The test system of a further assay is IL-18 levels in saliva. As to the kind of experiment: IL-18 levels in human saliva after 14 days of dosing. In kind it is in vivo. To be noted: human subjects. How it is done: To examine the dose effects of COMPOUND NO. 1 on the IL-18 levels, subjects were treated with 0, 100, 600 mg of COMPOUND NO. 1 for 14 days and the saliva samples were collected. IL-18 levels in the samples were measured by ELISA as described above. […] 1 at 600 mg as compared to the placebo group (FIG. 8). The IL-18 levels were similar in the placebo group and the subjects treated with COMPOUND NO. 1 at 100 mg.

In assay [1] the target is T1, recombinant human chymase (Homo sapiens, UniProt P23946).
T1 construct: made in house
T1 sequence (P23946 22-247): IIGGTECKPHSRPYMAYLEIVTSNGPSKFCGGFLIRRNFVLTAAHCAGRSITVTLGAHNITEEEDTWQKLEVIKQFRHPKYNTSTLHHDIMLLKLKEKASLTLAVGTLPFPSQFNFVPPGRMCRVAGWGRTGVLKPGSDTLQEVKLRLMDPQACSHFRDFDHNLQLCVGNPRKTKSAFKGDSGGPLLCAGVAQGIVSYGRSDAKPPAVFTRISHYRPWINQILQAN
The assay can be described thus: reversal of chymase-induced decrease of IL-18 levels in human saliva (ELISA). The assay is classed as biochemical. The conditions noted are these: 37° C.; for dose-dependent reversal of chymase-induced decrease of IL-18 levels: 0-10,000 nM compound, human saliva; for dose-dependent reversal of chymase-induced decrease of IL-18 levels / IC50: 80 nM chymase, 1 hr; for IC50: n=3, ELISA, read-out: IC50 for reversal of chymase-induced IL-18 reduction; for reversal of chymase-induced reduction of IL-18 levels: chymase 2 μg/ml, COMPOUND No. 3 1 μM or chymostatin 3 μg/ml, 1 h. How it is done: (§1) The digestion was measured using the enzyme-linked immunosorbent assay (ELISA) kit (R&D Systems). […] As the ELISA detection provided quantitative measurement and high-throughput screening capacity, it was used for the following experiments.
Next, activities of the recombinant chymase and COMPOUND NO. 3 were examined with endogenous IL-18.
The dose effects of the chymase inhibitors on IL-18 levels were also examined. […] The IL-18 levels were measured using ELISA as described above.
Next, the effects of various serine proteases and inhibitors on IL-18 levels were examined.

The test system of another assay is tryptase. The assay can be described thus: reversal of tryptase-induced reduction of IL-18 in saliva (ELISA). In kind it is biochemical. The conditions noted are these: tryptase 1 μg/ml + compound 1 μM; 37° C., 1 h. On the procedure: (§2) Next, the effects of various serine proteases and inhibitors on IL-18 levels were examined. The saliva samples were incubated with vehicle (DMSO/PBS), chymase (2 μg/ml), COMPOUND No. 3 (1 μM), chymase (2 μg/ml)+COMPOUND No. 3 (1 μM), chymostatin (3 μg/ml), chymase (2 μg/ml)+chymostatin (3 μg/ml), cathepsin G (2 μg/ml), cathepsin G (2 μg/ml)+COMPOUND No. 3 (1 μM), elastase (0.5 μg/ml), elastase (0.5 μg/ml)+COMPOUND No. 3 (1 μM), proteinase 3 (2 μg/ml), proteinase 3 (2 μg/ml)+COMPOUND No. 3 (1 μM), tryptase (1 μg/ml), or tryptase (1 μg/ml)+COMPOUND 3 (1 μM) at 37° C. for 1 h. […] In contrast, cathepsin G and elastase had no effect on IL-18 levels. […] However, the reduction of IL-18 by these two enzymes was not reversed by COMPOUND No. 3.

The test system of assay [2] is endogenous chymase activity and other proteases activity in saliva samples. As to the kind of experiment: IL-18 levels in saliva samples incubated with protease inhibitors, no added chymase (ELISA). The assay is classed as biochemical, human. The conditions noted are these: 37° C., 1 hour. How it is done: To determine the effects of additional protease inhibitors on the endogenous IL-18 levels, the pan protease inhibitors and/or COMPOUND No. 3 were incubated with saliva samples at 37° C. for 1 hour. […] Ten μM of COMPOUND NO.

The next assay addresses T2, proteinase 3 (Homo sapiens, UniProt P24158).
T2 sequence (P24158 28-248): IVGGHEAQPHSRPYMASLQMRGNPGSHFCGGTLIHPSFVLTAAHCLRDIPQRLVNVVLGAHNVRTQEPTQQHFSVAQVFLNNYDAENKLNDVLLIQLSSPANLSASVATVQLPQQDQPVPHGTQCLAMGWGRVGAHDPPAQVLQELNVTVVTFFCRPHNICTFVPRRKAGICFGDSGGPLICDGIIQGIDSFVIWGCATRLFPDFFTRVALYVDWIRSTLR
The assay can be described thus: reversal of proteinase 3-induced reduction of IL-18 in saliva (ELISA). The assay is classed as biochemical. To be noted: proteinase 3 2 μg/ml + compound 1 μM; 37° C., 1 h. On the procedure: as §2

For another assay, the system named is endogenous IL-18. The assay can be described thus: effect of serine proteases on endogenous IL-18 levels in saliva samples (ELISA). To be noted: 37° C.; for effect of serine protease on IL-18 levels: saliva, 1 h, chymase 2, cathepsin G 2, elastase 0.5, proteinase 3 2, tryptase 1 μg/ml. In kind it is biochemical, human. On the procedure:
Next, activities of the recombinant chymase and COMPOUND NO. 3 were examined with endogenous IL-18. One ml of saliva samples were collected from six subjects and incubated with vehicle (DMSO/PBS), chymase (80 nM), and chymase+COMPOUND No. 3 (1 μM) at 37° C. for 3 hr.
To determine the dose effects of the recombinant chymase on IL-18 levels, 1-300 nM of the recombinant chymase were incubated with saliva samples at 37° C. for 1 hr.
as §2

Assay [3] has as its system recombinant mature human IL-18. As to the kind of experiment: cleavage of recombinant mature human IL-18 by chymase (Western blot, ELISA). The assay is classed as biochemical. To be noted: 37° C. On the procedure: A recombinant human chymase was generated according to Kervinen et al. (2008). A hundred ng of the recombinant mature human IL-18 (rIL-18, R&D Systems, 614 McKinley Place NE, Minneapolis, Minn. 55413) was incubated with the recombinant chymase (w/w 1:25) in PBS at 37° C. for various time points. The digestion products were separated on a 4-12% gradient gel. Western blot analysis was done with a specific monoclonal antibody against human IL-18. […] The exact cleavage sites were not clear. Without being bound to any theory, the mature IL-18 may be cleaved by the recombinant human chymase into the ˜16 kD fragment which may be further degraded into the ˜12 kD fragment. […] In addition, the chymase-induced cleavage of rIL-18 was both time (FIG. 1A) and dose dependent (FIG. 1B).
as §1

With `CP(=O)(O)C(C(=O)N/C=C/c1ccc(F)c(F)c1)c1csc2ccc(Cl)cc12` (stereo not shown) [COMPOUND NO. 1], the “cross activity with other serine proteases” value with other serine proteases is on record as “little or no cross activity”. Besides, the “IL-18 levels in saliva compared to the placebo group, 100 mg” value with IL-18 levels in saliva (100 mg for 14 days) is on record as “similar”. For the same molecule, in the assay on IL-18 levels in saliva (600 mg for 14 days, p<0.03), the “IL-18 levels in saliva compared to the placebo group, 600 mg” value is given as “significant increase”.

In the case of `CC(C)OC(=O)OCOP(=O)(O)C(C(=O)N/C=C/c1cc(Cl)cc(Cl)c1)c1csc2ccc(Cl)cc12` (stereo not shown) [COMPOUND NO. 2], in assay [1], the “dose-dependent reversal of chymase-induced decrease of IL-18 levels” value is reported as “dose-dependently reversed” and the half-inhibitory concentration (IC50) was found to be 1460 ± 563 nM.

Take `O=C(N/C=C/c1cc(Cl)cc(Cl)c1)C(c1csc2ccc(Cl)cc12)P(=O)(O)O` (stereo not shown) [COMPOUND NO. 3]: the “reversal of tryptase-induced reduction of IL-18” value in the assay on tryptase is “not reversed”. Also, in assay [1], the “dose-dependent reversal of chymase-induced decrease of IL-18 levels” value is “dose-dependently reversed”, the IC50 was 3600 ± 928 nM and the “reversal of chymase-induced reduction of IL-18 levels” value was “reversed this reduction”. Further, in assay [1] (chymase 80 nM + compound 1 μM, 3 hr, subjects 1-3 and 6), the “reversal of chymase-induced decrease of IL-18 levels, subjects 1-3 and 6” value is listed as “reversed completely”. In addition, the “reversal of chymase-induced decrease of IL-18 levels, subjects 4 and 5” value in assay [1] (chymase 80 nM + compound 1 μM, 3 hr, subjects 4 and 5) is on record as “reverted to a large degree”. Besides, the “reversal of chymase-induced decrease of IL-18 levels” value in assay [1] (saliva of six subjects, chymase 80 nM + compound 1 μM, 3 hr) is “reversed or prevented”. Also, in assay [2] (1 or 10 μM), the “reversal of the decrease in IL-18 levels in incubated saliva” value was “reversed some of the decrease”. Moreover, in assay [2], the “increase of IL-18 levels at 10 μM compared with 1 μM” value was “almost two fold”. Besides, the “reversal of proteinase 3-induced reduction of IL-18” value on proteinase 3 was “not reversed”.

Take `CC(C)C[C@H](NC(=O)[C@@H](NC(=O)N[C@@H](Cc1ccccc1)C(=O)O)[C@@H]1CCN=C(N)N1)C(=O)N[C@H](C=O)Cc1ccccc1` [chymostatin, reference compound]: in assay [1], the “reversal of chymase-induced reduction of IL-18 levels” value is on record as “reversed the reduction”.

For elastase, the “effect of serine protease on IL-18 levels” value (shortened to “effect of serine protease”) in the assay with endogenous IL-18 was “no effect”.

B1: cathepsin G: serine protease (protein, UniProt P08311 21-244, looked up)
Cathepsin G: IIGGRESRPHSRPYMAYLQIQSPAGQSRCGGFLVREDFVLTAAHCWGSNINVTLGAHNIQRRENTQQHITARRAIRHPQYNQRTIQNDIMLLQLSRRVRRNRNVNPVALPRAQEGLRPGTLCTVAGWGRVSMRRGTDTLREVQLRVQRDRQCLRIFGSYDPRRQICVGDRRERKAAFKGDSGGPLLCNNVAHGIVSYGKSSGVPPEVFTRVSSFLPWIRTTMRS
As for B1, in the assay with endogenous IL-18, the “effect of serine protease” value was “no effect”.

B2: recombinant chymase: recombinant human chymase generated according to Kervinen et al. (2008) (protein, UniProt P23946 22-247, looked up)
Chymase: IIGGTECKPHSRPYMAYLEIVTSNGPSKFCGGFLIRRNFVLTAAHCAGRSITVTLGAHNITEEEDTWQKLEVIKQFRHPKYNTSTLHHDIMLLKLKEKASLTLAVGTLPFPSQFNFVPPGRMCRVAGWGRTGVLKPGSDTLQEVKLRLMDPQACSHFRDFDHNLQLCVGNPRKTKSAFKGDSGGPLLCAGVAQGIVSYGRSDAKPPAVFTRISHYRPWINQILQAN
In the assay with endogenous IL-18 (1-300 nM chymase in saliva samples, 1 hr, n=3), B2 gave an EC50 of 60.4 ± 15.2 nM. Besides, in the assay on endogenous IL-18 (chymase 80 nM, saliva of six subjects, 3 hr), the “effect on immunoreactivity or levels of endogenous IL-18” value is listed as “decrease”. In addition, in the assay on endogenous IL-18, the “effect of serine protease” value was “reduced”. Also, in assay [3] (80 nM chymase, 4 mg/ml rIL-18, PBS, 1.5 h, without chymase ~4000), the “rIL-18 immunoreactivity or levels in the presence of chymase, PBS” value was about 1300 ng/mL. Besides, in assay [3] (80 nM chymase, 4 mg/ml rIL-18, saliva, 1.5 h, without chymase ~3,000), the “rIL-18 immunoreactivity or levels in the presence of chymase, saliva” value is recorded as ~1,000 ng/ml. In assay [3] (100 ng rIL-18, chymase w/w 1:25, PBS, fragments ~16 and ~12 kD), the “cleavage of mature human IL-18 (Western blot)” value is reported as “able to cleave”.

B3: Proteinase 3: serine protease (protein, UniProt P24158 28-248, looked up)
Myeloblastin: IVGGHEAQPHSRPYMASLQMRGNPGSHFCGGTLIHPSFVLTAAHCLRDIPQRLVNVVLGAHNVRTQEPTQQHFSVAQVFLNNYDAENKLNDVLLIQLSSPANLSASVATVQLPQQDQPVPHGTQCLAMGWGRVGAHDPPAQVLQELNVTVVTFFCRPHNICTFVPRRKAGICFGDSGGPLICDGIIQGIDSFVIWGCATRLFPDFFTRVALYVDWIRSTLR
Turning to B3, the “effect of serine protease” value with endogenous IL-18 is given as “reduced IL-18 levels significantly”.
